Laboratory results published in US5604294A, “Macrocyclic immunomodulators” (priority 1994, dated 1997).

Test system: human mixed lymphocyte reaction (MLR)
Experiment: human mixed lymphocyte reaction (MLR) assay (immunosuppressant activity)
Type: cell-based
Details: Table 1
Experimental: The immunosuppressant activity of the compounds of the present invention was determined using the human mixed lymphocyte reaction (MLR) assay described by Kino, T. et al. in Transplantation Proceedings, XIX(5):36-39,Suppl.

SMILES | IC50 (Lymphocyte) [nM] | IC50 [nM]
CC[C@@H]1/C=C(\C)C[C@H](C)C[C@H](OC)[C@H]2O[C@@](O)(C(=O)C(=O)N3CCCC[C@H]3C(=O)O[C@H](/C(C)=C/[C@@H]3CC[C@@H](OC(=S)Oc4ccccc4)[C@H](OC)C3)[C@H](C)[C@@H](O)CC1=O)[C@H](C)C[C@@H]2OC [Example 1] | 0.7 | 
CC[C@@H]1/C=C(\C)C[C@H](C)C[C@H](OC)[C@H]2O[C@@](O)(C(=O)C(=O)N3CCCC[C@H]3C(=O)O[C@H](/C(C)=C/[C@@H]3CC[C@@H](O)[C@H](OC)C3)[C@H](C)C=CC1=O)[C@H](C)C[C@@H]2OC [Example 3] | 80 | 
CC[C@@H]1/C=C(\C)C[C@H](C)C[C@H](OC)[C@H]2O[C@@](O)(C(=O)C(=O)N3CCCC[C@H]3C(=O)O[C@H](/C(C)=C/[C@@H]3CCC(=O)[C@H](OC)C3)[C@H](C)[C@@H](O)CC1=O)[C@H](C)C[C@@H]2OC [Example 4] | 0.4 | 
CC[C@@H]1/C=C(\C)C[C@H](C)C[C@H](OC)[C@H]2O[C@@](O)(C(=O)C(=O)N3CCCC[C@H]3C(=O)O[C@H](/C(C)=C/[C@@H]3CC[C@@H](O)[C@H](OC)C3)[C@H](C)C(=O)CC1=O)[C@H](C)C[C@@H]2OC [Example 7] | 113 | 
CC[C@@H]1/C=C(\C)C[C@H](C)C[C@H](OC)[C@H]2O[C@@](O)(C(=O)C(=O)N3CCCC[C@H]3C(=O)O[C@H](/C(C)=C/[C@@H]3CC[C@@H](O)[C@H](OC)C3)[C@H](C)c3cc1nn3CCO)[C@H](C)C[C@@H]2OC [Example 8] | 380 | 
CC[C@@H]1/C=C(\C)C[C@H](C)C[C@H](OC)[C@H]2O[C@@](O)(C(=O)C(=O)N3CCCC[C@H]3C(=O)O[C@H](/C(C)=C/[C@@H]3CC[C@@H](OC(=N)C(Cl)(Cl)Cl)[C@H](OC)C3)[C@H](C)[C@@H](O)CC1=O)[C@H](C)C[C@@H]2OC [Example 9] | 0.02 | 
CC[C@@H]1/C=C(\C)C[C@H](C)C[C@H](OC)[C@H]2O[C@@](O)(C(=O)C(=O)N3CCCC[C@H]3C(=O)O[C@H](/C(C)=C/[C@@H]3CC[C@@H](OP(=O)(Oc4ccccc4)Oc4ccccc4)[C@H](OC)C3)[C@H](C)[C@@H](OP(=O)(Oc3ccccc3)Oc3ccccc3)CC1=O)[C@H](C)C[C@@H]2OC [Example 10] |  | 11.1
CC[C@@H]1/C=C(\C)C[C@H](C)C[C@H](OC)[C@H]2O[C@@](O)(C(=O)C(=O)N3CCCC[C@H]3C(=O)O[C@H](/C(C)=C/[C@@H]3CC[C@@H](O)[C@H](OC)C3)[C@H](C)C(N3CCN(Cc4ccccc4)CC3)CC1=O)[C@H](C)C[C@@H]2OC (stereo partly drawn) [Example 16] | 191 | 
CC[C@@H]1/C=C(\C)C[C@H](C)C[C@H](OC)[C@H]2O[C@@](O)(C(=O)C(=O)N3CCCC[C@H]3C(=O)O[C@H](/C(C)=C/[C@@H]3CC[C@@H](O)[C@H](OC)C3)[C@H](C)C(N3CCN(C)CC3)CC1=O)[C@H](C)C[C@@H]2OC (stereo partly drawn) [Example 17] | 47.4 | 
CC[C@@H]1/C=C(\C)C[C@H](C)C[C@H](OC)[C@H]2O[C@@](O)(C(=O)C(=O)N3CCCC[C@H]3C(=O)O[C@H](/C(C)=C/[C@@H]3CC[C@@H](O)[C@H](OC)C3)[C@H](C)C(N3CCN(c4ccccc4)CC3)CC1=O)[C@H](C)C[C@@H]2OC (stereo partly drawn) [Example 18] | 119 | 
CC[C@@H]1/C=C(\C)C[C@H](C)C[C@H](OC)[C@H]2O[C@@](O)(C(=O)C(=O)N3CCCC[C@H]3C(=O)O[C@H](/C(C)=C/[C@@H]3CC[C@@H](O)[C@H](OC)C3)[C@H](C)[C@@H](OC(=O)CI)CC1=O)[C@H](C)C[C@@H]2OC [Example 21] | 9.3 | 
CC[C@@H]1/C=C(\C)C[C@H](C)C[C@H](OC)[C@H]2O[C@@](O)(C(=O)C(=O)N3CCCC[C@H]3C(=O)O[C@H](/C(C)=C/[C@@H]3CC[C@@H](OC(=O)CI)[C@H](OC)C3)[C@H](C)[C@@H](O)CC1=O)[C@H](C)C[C@@H]2OC [Example 23] | 1.4 | 
CC[C@@H]1/C=C(\C)C(O)[C@H](C)C[C@H](OC)[C@H]2O[C@@](O)(C(=O)C(=O)N3CCCC[C@H]3C(=O)O[C@H](/C(C)=C/[C@@H]3CC[C@@H](O)[C@H](OC)C3)[C@H](C)[C@@H](OC(=O)CI)CC1=O)[C@H](C)C[C@@H]2OC (stereo partly drawn) [Example 25] | 203 | 
CC[C@@H]1/C=C(\C)C(O)[C@H](C)C[C@H](OC)[C@H]2O[C@@](O)(C(=O)C(=O)N3CCCC[C@H]3C(=O)O[C@H](/C(C)=C/[C@@H]3CC[C@@H](OC(=O)CI)[C@H](OC)C3)[C@H](C)[C@@H](O)CC1=O)[C@H](C)C[C@@H]2OC (stereo partly drawn) [Example 26] | 125 | 
CC[C@@H]1/C=C(\C)C[C@H](C)C[C@H](OC)[C@H]2O[C@@](O)(C(=O)C(=O)N3CCCC[C@H]3C(=O)O[C@H](/C(C)=C/[C@@H]3CC[C@@H](O)[C@H](OC)C3)[C@H](C)C(N3CCNCC3)CC1=O)[C@H](C)C[C@@H]2OC (stereo partly drawn) [Example 27] | 521 | 
